The values below come from patent US12599666B2, “Photolytic compounds and triplet-triplet annihilation mediated photolysis” (University of Massachusetts, priority 2019, dated 2026).

The conditions of series [1]: PPGs, from the literature, cited from earlier work.
For series [2] the following is noted: cited from earlier work.
Series [3] can be described thus: Photocleavage quantum yield / photolytic quantum efficiency calculation. As to conditions: for ε2 × Φp: ε (Sen) × Φp (PPGs); ηp (TTAP): PtOEP as sensitizer; for ε1 × Φp: ε (PPGs) × Φp (PPGs); ηp (direct): direct short wavelength illumination.
Source text: We compared photolytic quantum efficiency of the widely used PPG of Cou by using the UCNPs as phototransducer.
A short description of series [4]: Photophysical parameters of Sen and PPGs (UV-vis absorption, emission, energy levels). Format: physicochemical. Also noted: λabs maximum absorption wavelength / λem maximum emission wavelength: unit not given here. As to conditions: for λabs maximum absorption wavelength / λem maximum emission wavelength / ξ molar extinction coefficient: in toluene, 10 μM; for T1 triplet excited state: photosensitizers (Sen), from maximum phosphorescence emission. The protocol: Characterization: ^1H NMR spectra were recorded with a Bruker 500 MHz spectrometer. UV-Vis spectra were recorded on an Agilent Cary-5 spectrophotometer. Steady-state fluorescence spectra were measured on a HITACHI F-7000 spectrometer. […] The sample for TEM measurement was prepared by dropping the solution onto a carbon-coated copper grid following negative staining with 2.0% (w/v) phosphotungstic acid. The particle size and size distribution were measured by using dynamic light scattering (DLS) on a Malvern Nano-ZS particle size analyzer, excitation wavelength 532 nm. All samples in the Stern-Volmer quenching plots experiments were deaerated with argon for ca. 15 min before measurement and the gas flow was maintained during the measurements. For the TTA upconversion spectra measurement, the diode pumped solid-state laser (650 nm, continues wave, CW, Hi-Teach company, China) was used as the excitation light source and a modified spectrofluorometer was used to record the upconversion spectra. For the prodrug photolytic experiment, an All LED (Mightex Company) was used as the excitation light source.
From the absorption and emission spectra of Sen and PPGs, the triplet and singlet energy levels of PPG and Sen can be calculated. The maximum emission wavelength of phosphorescence is the triplet excited state energy level (T1) of the Sen. The maximum emission wavelength of fluorescence is the singlet excited state energy level (S1) of the PPGs. Moreover, according to the literature, we know the triplet excited energy levels of PPGs. The detail information is always in […]

The nature of series [5]: Stern-Volmer photoluminescence quenching of photosensitizers by PPGs-X. It counts as physicochemical. The procedure: The Stern-Volmer quenching plots experiment (ksv): photoluminescence of photosensitizers (PtTNP, PdTPBP, PtOEP, and Ir(ppy)3) in the presence of different concentrations of PPGs (BDP, perylene, anthracene and coumarin). The mixed solutions were degassed for at least 15 min with Ar in toluene. The ksv constants were calculated with eq 1, where 1o and It stand for photoluminescence intensity of photosensitizer in the absence of PPGs-X and the photoluminescence intensity of photosensitizer in the presence PPGs-X. Q is the concentration of PPGs-X. Biomolecular quenching constants (kq) were calculated by eq2. The Tr is the phosphorescence lifetime of photosensitizer in argon.

Series [6] in a line: TTA upconversion quantum yield. It counts as physicochemical. As to conditions: paired with PtOEP. The procedure:
The upconversion quantum yields (ΦUC): The upconversion quantum yields were calculated with the eq 3, where ΦUC and Φstd stand for upconversion luminescence quantum yield of sample TTA-UC and fluorescence quantum yield of reference compounds, respectively. Aunk and Astd stand for absorbance of the TTA-UC and reference compound, respectively. Iunk and Istd stand for integrated upconversion luminescence intensity of the TTA-UC and fluorescence intensity of reference compounds, respectively. ηunk and μstd stand for the refractive index of water. The equation is multiplied by a factor of 2 to make the maximum quantum yield of two unified emitters.
The upconversion experiments were deaerated with argon for ca. 15 min before measurement and the argon gas flow was kept during the measurement.

Series [7] in a line: Photolytic molecule experiment: TTAP photolytic reaction in solution under LED, HPLC yield. It counts as physicochemical. The procedure:
Photolytic molecule experiment: The NIR LED (720 nm), far red LED (650 nm), green LED (530 nm), blue LED (476 nm) and deep blue (455 nm) were used for photolytic reactions. […] Then, the solution was excited with a LED (20 mW/cm^2) at 37° C. After the photolytic reaction, the raw product was dried and re-dissolved in CH3CN/H2O=(2/1, v/v) and HPLC was used to analyze the yield of product.

The mark [8] stands for this setting: One photon: 120 mW/cm^2, λ > 400 nm.
Setting [9] is: UCNPs as photo transducers, 570 mW cm^−2, λ = 980 nm.
The mark [10] stands for this setting: PtOEP, green LED light (20 mW/cm^2, 532 nm).
[11] abbreviates: PdTPBP, far-red LED light (20 mW/cm^2, 650 nm).
[12] abbreviates: PtTNP, NIR LED light (20 mW/cm^2, 720 nm, 1 h).

Values joined by “and” are separate entries in the source; they are usually repeats but may differ in a detail not shown here. Equal values may be shown once. Read-outs that look alike come from different tables or passages of the source. Marks after values point to notes of the source that are not given here.

`O=c1ccc2ccccc2o1` [Coumarin, coumarin]: the “T1 triplet excited state” value in series [1] is on record as 2.18 eV. Further, in series [2] (setting [8]), the Photocleavage quantum yield is on record as 0.13 and the “Photolytic efficiency (ε × Φ)” value is given as 806. In addition, the Photocleavage quantum yield in series [2] (setting [9]) is reported as 0.13. Further, the “Overall photocleavage quantum yield; η (upconversion)” value in series [3] (setting [9]) is below 0.02873.
Consider `[Pd+2].c1ccc(-c2c3nc(c(-c4ccccc4)c4[n-]c(c(-c5ccccc5)c5nc(c(-c6ccccc6)c6[n-]c2c2ccccc62)-c2ccccc2-5)c2ccccc42)-c2ccccc2-3)cc1` [PdTPBP, meso-tetraphenyltetrabenzoporphine palladium complex], for which, in series [4], the “λabs maximum absorption wavelength” value came to 630, the “λem maximum emission wavelength” value is recorded as 790, the “ξ molar extinction coefficient” value is on record as 11.0 10^4 M^−1 cm^−1 and the “T1 triplet excited state” value was 1.55 eV.
`c1cc2cccc3c4cccc5cccc(c(c1)c23)c54` [Perylene, perylene]: the “T1 triplet excited state” value in series [1] is 1.52 eV. Further, the Photocleavage quantum yield in series [2] (110 mW/cm^2 Hg lamp, >410 nm) was 0.093; in series [2] (125 WHg lamp, ≥410 nm), 0.093; in series [2] (TTAP, 20 mW/cm^2, λ = 650 nm) it was 0.093. The “Photolytic efficiency (ε × Φ)” value in series [2] (110 mW/cm^2 Hg lamp, >410 nm) was 3627; in series [2] (125 WHg lamp, ≥410 nm), 3627. Further, the “Overall photocleavage quantum yield” value in series [3] (TTAP, 20 mW/cm^2, λ = 650 nm) is listed as 12400.
With `CCC1=C(CC)c2cc3[n-]c(cc4nc(cc5[n-]c(cc1n2)c(CC)c5CC)C(CC)=C4CC)c(CC)c3CC.[Pt+2]` [PtOEP, platinum octaethylporphyrin], in series [4], the “λabs maximum absorption wavelength” value worked out at 533, the “λem maximum emission wavelength” value is recorded as 647, the “ξ molar extinction coefficient” value is given as 7.0 10^4 M^−1 cm^−1 and the “T1 triplet excited state” value was 1.92 eV.
Regarding `CC(=O)OCc1c2ccccc2cc2ccccc12` [compound 2], the “quenching of the photoluminescence of PtOEP” value in series [5] (PtOEP) is “significant quenching”. Further, in series [5] (PtOEP as sensitizer), the “ksv (bimolecular quenching constant)” value was 2.43 × 10^9 j M^−1S^−1 and the “ksv Stern-Volmer quenching constant” value stood at 219000 J/M. Moreover, the “T1 triplet excited state” value in series [1] (listed as An) was 1.77 ^n eV and 1.77 eV. This compound also registered an upconversion quantum yield in series [6] of 8.7%. Besides, in series [7] (PtOEP, dark, argon, 1 h), the “Yield (HPLC) of photolytic reaction” value is “No reaction”. The photolytic yield in series [7] (setting [10]) is recorded as 83%. Also, in series [7] (PtOEP, light, air, 1 h), the “Yield (HPLC) of photolytic reaction” value is on record as “Trace”. In addition, the “Yield (HPLC) of photolytic reaction” value in series [7] (PtOEP, light, argon, 1 h) is 83.2%. Moreover, in series [7] (compound only (no PtOEP), green light, argon, 1 h), the “Yield (HPLC) of photolytic reaction” value is reported as “No reaction”. In addition, the “2 × T1 − S1” value in series [4] (PPGs) is listed as 0.53 eV. For the same compound, the “S1 singlet excited state” value in series [4] (PPGs, from maximum fluorescence emission) is 3.02 eV. Also, in series [4], the “λabs maximum absorption wavelength” value was 366, the “λem maximum emission wavelength” value is on record as 411 and the “ξ molar extinction coefficient” value was 1.1 10^4 M^−1 cm^−1. Also, the “increase of ηp (TTAP) over ηp (direct)” value in series [3] (PtOEP) is reported as 638%. In addition, in series [3], the “ε2 × Φp: ε (Sen) × Φp (PPGs); ηp (TTAP)” value is listed as 6230 ^j and the “ε1 × Φp: ε (PPGs) × Φp (PPGs); ηp (direct)” value was 979. Also, in series [3] (listed as An), the “ε2 × Φp: ε (Sen) × Φp (PPGs); ηp (TTAP)” value is recorded as 6230 and the “ε1 × Φp: ε (PPGs) × Φp (PPGs); ηp (direct)” value was 976.
As to `CC(C)COC(=O)OCc1c2ccccc2cc2ccccc12` [compound 3], the photolytic yield in series [7] (setting [10]) is on record as 72.3%.
Consider `CCCCNC(=O)OCc1c2ccccc2cc2ccccc12` [compound 4], for which the photolytic yield in series [7] (setting [10]) was 51.0%.
In the case of `CC(C)(C)OC(=O)NCC(=O)OCc1c2ccccc2cc2ccccc12` [compound 5], in series [7] (setting [10]), the photolytic yield is given as 58.4%.
Regarding `CC(C)COC(=O)OCc1ccc2c3cccc4cccc(c5cccc1c52)c43` [compound 9], the photolytic yield in series [7] (setting [11]) was 65.3%; in series [7] (setting [12]) it was 27.8%.
Regarding `CCCCNC(=O)OCc1ccc2c3cccc4cccc(c5cccc1c52)c43` [compound 10], the values for the photolytic yield in series [7] (setting [11]) and in series [7] (setting [12]) were 52.4% and 29.3%, respectively.
In the same order, the values of `CC(C)(C)OC(=O)NCC(=O)OCc1ccc2c3cccc4cccc(c5cccc1c52)c43` [compound 12] are 89.2% and 29.6%.
For `CC(C)(C)OC(=O)N[C@@H](CSSC(C)(C)C)C(=O)OCc1ccc2c3cccc4cccc(c5cccc1c52)c43` [compound 14], in that order: 81.2% and 23.3%.
`COc1ccc2cc(C(C)C(=O)OCc3ccc4c5cccc6cccc(c7cccc3c74)c65)ccc2c1` (centres unmarked) [compound 16]: the figures for the photolytic yield in series [7] (setting [11]) and in series [7] (setting [12]) were 78.5% and 17.4%, respectively.
For `COc1ccc2c(c1)c(CC(=O)OCc1ccc3c4cccc5cccc(c6cccc1c63)c54)c(C)n2C(=O)c1ccc(Cl)cc1` [compound 17], in that order: 51.7% and 9.2%.
In the same order, the values of `CC(C)Cc1ccc(C(C)C(=O)OCc2ccc3c4cccc5cccc(c6cccc2c63)c54)cc1` (centres unmarked) [compound 18] are 71.6% and 19.4%.
Take `O=C(CCCc1ccc(N(CCCl)CCCl)cc1)OCc1ccc2c3cccc4cccc(c5cccc1c52)c43` [compound 19]: the “Yield (HPLC yield)” value is given as “No reaction” in series [7] (Compound 19 only, 720 nm LED, 1 h); “No reaction” in series [7] (Compound 19 only, argon, 720 nm LED, 1 h); “No reaction” in series [7] (Compound 19 only, argon, red light, 2 h); “No reaction” in series [7] (Compound 19 only, red light, 2 h); 7 in series [7] (PdTPBP, air, red light, 2 h); “No reaction” in series [7] (PdTPBP, argon, dark, 2 h). Besides, the “Yield (HPLC yield)” value was 72.8 in series [7] (PdTPBP, argon, red light, 1 h); 67.0 in series [7] (PdTPBP, argon, red light, 2 h); “No reaction” in series [7] (PtTNP, air, 720 nm LED, 1 h); “No reaction” in series [7] (PtTNP, argon, dark, 1 h); 30.4 in series [7] (PtTNP, argon, 720 nm LED, 1 h). Also, the figures for the photolytic yield in series [7] (setting [11]) and in series [7] (setting [12]) were 72.8% and 30.4%, respectively.
For anthracene [reference compound], in series [1], the “T1 triplet excited state” value is listed as 1.77 eV.
